Reference: ChEMBL document CHEMBL1932979, “Conformationally restricted analog and biotin-labeled probe based on beauveriolide III” (Bioorg Med Chem Lett, 2012)
The source made the active and inactive calls. The rule behind the calls is not given here.

Key:
[1] = target: T1, Sterol O-acyltransferase 1 (Homo sapiens, UniProt P35610); experiment: Inhibition of ACAT1- mediated cholesteryl ester synthesis in macrophages
T1 sequence (P35610 whole entry): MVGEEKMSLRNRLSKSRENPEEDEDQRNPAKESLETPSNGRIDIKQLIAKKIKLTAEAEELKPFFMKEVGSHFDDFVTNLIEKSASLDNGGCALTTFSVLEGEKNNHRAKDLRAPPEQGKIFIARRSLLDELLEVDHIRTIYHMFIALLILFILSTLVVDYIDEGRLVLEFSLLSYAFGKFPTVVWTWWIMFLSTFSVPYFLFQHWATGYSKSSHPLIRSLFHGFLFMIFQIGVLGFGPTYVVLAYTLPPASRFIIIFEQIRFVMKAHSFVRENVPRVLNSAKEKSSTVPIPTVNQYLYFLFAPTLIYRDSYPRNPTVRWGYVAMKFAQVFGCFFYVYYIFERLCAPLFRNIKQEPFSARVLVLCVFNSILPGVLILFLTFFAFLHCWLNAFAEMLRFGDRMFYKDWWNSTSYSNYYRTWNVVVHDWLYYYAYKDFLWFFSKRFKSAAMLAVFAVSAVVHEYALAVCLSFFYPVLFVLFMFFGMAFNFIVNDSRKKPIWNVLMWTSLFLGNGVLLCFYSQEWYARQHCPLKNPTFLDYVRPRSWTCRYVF

[2] = target: T2, Sterol O-acyltransferase 1 (Homo sapiens) (UniProt P35610); experiment: Inhibition of ACAT1- mediated cholesteryl ester synthesis in macrophages up to 10 uM
T2 sequence (whole entry): T1 sequence (P35610 whole entry)

Row | Structure (SMILES) | IC50 [1] [nM] | inhibition [2]
1 | CCCC[C@H](C)[C@@H]1CC(=O)N[C@@H](C(c2ccccc2)c2ccccc2)C(=O)N[C@H](Cn2cc(CNC(=O)CCCCNC(=O)CCCC[C@@H]3SC[C@@H]4NC(=O)N[C@@H]43)nn2)C(=O)N[C@H](C2CCCCC2)C(=O)O1 | 800 | inactive
2 | CCCC[C@H](C)[C@@H]1CC(=O)N[C@@H](C(c2ccccc2)c2ccccc2)C2=N[C@H](CO2)C(=O)N[C@H](C2CCCCC2)C(=O)O1 | 280 | –
